According to patent publication US20200407717A1, “METHODS OF MODULATING ANTISENSE ACTIVITY” (Ionis Pharmaceuticals, Inc., priority 2018, published 2020):
e = 2'-O-(2-methoxyethyl) (MOE); d = 2'-deoxy (DNA)

How the values were obtained:
[1] = test system: EGF-EGFR signaling; experiment: EGFR signaling western blot (p-EGFR, p-ERK), A431 cells; assay type: cell-based; details: 2 μM for 16 hours
Experimental: In order to test the effects of a PS-ASO on EGFR signaling, A431 cells were incubated with compound no. 116847 or no PS-ASO compound for 16 hours. All cells were then treated with EGF prior to being subjected to the pulse-chase protocol described above. Cell lysates were run on a SDS-PAGE gel and analyzed by sequential western blot for phosphorylated EGFR (P-EGFR), total EGFR (T-EGFR), phosphorylated ERK (P-ERK), and total ERK (T-ERK) using the antibodies described above for EGFR, 4370 for P-ERK (Cell Signaling Technology), and 4695 for T-ERK (Cell Signaling Technology).
110080, 25690, 25699, 395251, or 395254 at 2 μM for 16 hours prior to carrying out the pulse-chase experiment described above.

[2] = target: EGFR (Homo sapiens, UniProt P00533); experiment: Competitive NanoBRET binding assay; design: made in house; host or cells: HEK293 cells; details: Competitive BRET vs 10 nM AF594-labeled 766636; Table 6
Experimental: NanoBRET (bioluminescence resonance energy transfer) binding assays were performed as described in Vickers and Crooke. PLOS One, 11(8), (2016). An EGFR NLuc construct was prepared by first amplifying human EGFR from the full length cDNA clone (Origene RC217223) with forward PCR primer 5′-[…]-3′ (SEQ ID NO: 1) and reverse PCR primer 5′-[…] (SEQ ID NO: 2). The amplified product was ligated into the NheI and XhoI sites of the NanoLuc expression vector pFC32K Nluc CMV-Neo (Promega). Protein was expressed in HEK293 cells and isolated using Protein G magnetic beads. For competitive BRET, the Alexafluor594-labeled modified oligonucleotide 766636 was diluted into water in opaque white 96-well plates at 10 nM and competed with 0.1-10,000 nM of unlabeled modified oligonucleotide. […] of 2× binding buffer containing […] (relative luminescence units) beads/well was added and plates were shaken for 10 minutes at room temperature. Nanoluciferase activity and BRET were measured in a Glowmax Discover plate reader and EC50 values, shown in the tables below, were calculated using GraphPad Prism. For direct BRET, Alexafluor594 modified nucleotides were diluted at 0.1-10,000 nM and experiments were performed as described above.

[3] = test system: EGFR; experiment: Microscopy of EGF-induced internalization and recycling of EGFR; assay type: cell-based; details: with EGF, 16 hours
Experimental: Microscopy studies were also carried out to evaluate the EGF-induced internalization and recycling of EGFR in the presence of Cy3-labeled PS-ASO, compound no. 446654. Cells were treated with EGF alone or EGF and compound no. 446654 for 16 hours. The cells were then either immediately stained and imaged, or the EGF and, if applicable, compound no. 446654 were removed for two hours prior to staining and imaging. Staining and imaging were performed as described above. […] Two hours after removal of EGF, cells show EGFR staining primarily in the plasma membrane. […] Two hours after removal of EGF and/or compound no. 446654, the Cy3 signal remained diffuse throughout the cytoplasm, while EGFR staining primarily localized to the plasma membrane.

[4] = test system: Malat1 RNA; experiment: Antisense activity by RT-qPCR, Malat1, HEK cells; assay type: cell-based
Experimental: A431 cells were grown at 10,000 cells per well and pre-treated with a variety of growth factors to determine if the addition of exogenous growth factors affects antisense activity or uptake of modified antisense oligonucleotides in a cell. The growth factors used were EGF, insulin growth factor (IGF), transforming growth factor (TGF), […] (VEGF), hepatocyte growth factor (HGF), platelet growth factor (PGF) and fibroblasts growth factor (FGF). To test antisense activity, cells were treated for 4 hours with a growth factor or vehicle alone, and then treated with compound no. 25690 (complementary to Drosha), compound no. 395254 (complementary to Malat1), or vehicle alone. RNA was isolated from the cells and Drosha or Malat1 RNA levels were measured by RT-qPCR. Human primer probe set 13816 (forward sequence […], designated herein as SEQ ID NO: 3; reverse sequence […], designated herein as SEQ ID NO: 4; probe sequence […], designated herein as SEQ ID NO: 5) was used to measure Drosha mRNA levels and primer probe set RTS2736 (forward sequence […], designated herein as SEQ ID NO: 6; reverse sequence […], designated herein as SEQ ID NO: 7; probe sequence TGCCACATCGCCACCCCGT, designated herein as SEQ ID NO: 8) was used to measure Malat1 RNA levels. Drosha and Malat1 RNA levels were normalized to total RNA content, as measured by RIBOGREEN®. Results are presented in the tables below as normalized RNA levels, relative to untreated control cells.
HEK cells were transfected with 2 μg plasmid encoding EGFR using Lipofectamine 3000 (ThermoFisher) at 2 μg/million cells. Cells were grown for 2 weeks in G418 selection media to select clones overexpressing EGFR. Cells were treated with compound no. 395254 for 16 hours prior to RT-qPCR analysis for Malat1, as in Example 8. The results, shown in the table below, indicate that antisense activity was increased in cells with higher expression levels of EGFR.

Q: Which results are given for “AGGAAGGAAGCTGGCGATCT (sugars from the 5' end e5 d10 e5, all phosphorothioate, methylation of C not given here) [compound 25690]”?
A: EGFR signaling [1]: not be impacted; EC50 [2]: 1.45 µM

Q: “Cy3-^mCesTesGes^mCesTesAdsGds^mCdsTds^mCdsTdsGdsGdsAdsTesTesTesGesAe (antisense CTGCTAGCCTCTGGATTTGA; listed as DNA, chemistry not fully specified) [compound 446654, Cy3-labeled PS-ASO]” was tested. Which “distribution of the ASO in cells” value [3] did it give?
A: Its value is “distributed throughout the cytoplasm”.

Q: Which results are given for “GGCATATGCAGATAATGTTC (sugars from the 5' end e5 d10 e5, all phosphorothioate, methylation of C not given here) [compound 395254]”?
A: Malat1 RNA (% Control) ([4]; 1 nM, HEK cells overexpressing EGFR): 100 % control; Malat1 RNA (% Control) ([4]; 1 nM, Wild type HEK cells): 100 % control; Malat1 RNA (% Control) ([4]; 2 nM, HEK cells overexpressing EGFR): 77.8 % control; Malat1 RNA (% Control) ([4]; 2 nM, Wild type HEK cells): 98.3 % control; Malat1 RNA (% Control) ([4]; 3.9 nM, HEK cells overexpressing EGFR): 73.4 % control; Malat1 RNA (% Control) ([4]; 3.9 nM, Wild type HEK cells): 96 % control; Malat1 RNA (% Control) ([4]; 7.8 nM, HEK cells overexpressing EGFR): 73.3 % control; Malat1 RNA (% Control) ([4]; 7.8 nM, Wild type HEK cells): 87.5 % control; Malat1 RNA (% Control) ([4]; 15.6 nM, HEK cells overexpressing EGFR): 68.1 % control; Malat1 RNA (% Control) ([4]; 15.6 nM, Wild type HEK cells): 81.4 % control; Malat1 RNA (% Control) ([4]; 31.3 nM, HEK cells overexpressing EGFR): 62.2 % control; Malat1 RNA (% Control) ([4]; 31.3 nM, Wild type HEK cells): 86.2 % control; Malat1 RNA (% Control) ([4]; 62.5 nM, HEK cells overexpressing EGFR): 62.4 % control; Malat1 RNA (% Control) ([4]; 62.5 nM, Wild type HEK cells): 95.4 % control; Malat1 RNA (% Control) ([4]; 125 nM, HEK cells overexpressing EGFR): 55.9 % control; Malat1 RNA (% Control) ([4]; 125 nM, Wild type HEK cells): 82.7 % control; Malat1 RNA (% Control) ([4]; 250 nM, HEK cells overexpressing EGFR): 52.9 % control; Malat1 RNA (% Control) ([4]; 250 nM, Wild type HEK cells): 72.1 % control; Malat1 RNA (% Control) ([4]; 1000 nM, HEK cells overexpressing EGFR): 36.5 % control; Malat1 RNA (% Control) ([4]; 1000 nM, Wild type HEK cells): 47.1 % control; Malat1 RNA (% Control) ([4]; 2000 nM, HEK cells overexpressing EGFR): 35.3 % control; Malat1 RNA (% Control) ([4]; 2000 nM, Wild type HEK cells): 28.5 % control; Malat1 RNA (% Control) ([4]; 5000 nM (so in the source), HEK cells overexpressing EGFR): 44.1 % control; Malat1 RNA (% Control) ([4]; 5000 nM (so in the source), Wild type HEK cells): 54.8 % control; antisense activity in cells with higher expression levels of EGFR ([4]; 16 hours): increased; EGFR signaling [1]: not be impacted; EC50 [2]: 1.24 µM
